≈ marks a conversion by molar mass, not a printed value. Where “and” joins values, the source holds several entries; their conditions need not be identical. Equal entries are not always repeated.
Experiments:
[1] = test system: HHV8 cell line, TPA-induced BCBL-1 cells; experiment: Kaposi's Sarcoma (HHV8) in vitro test, DNA copy number; type: cell-based
Method: The DNA copy number and the toxicity value were measured and compared with Cidofovir.

[2] = test system: U937KN1272, a protease resistant strain; experiment: Long term in vitro study, U937KN1272, reverse transcriptase; type: cell-based, HIV
Method: A microtiter-based reveres transcriptase (RT) reaction is utilized (Buckheit et al (1991) AIDS Research and Human Retroviruses 7:295-302). Tritiated thymidine triphosphate (NEN)(TTP) is resuspended in distilled water at 5 Ci/ml. Poly rA and oligo dT are prepared as a stock solution which is kept at −20° C. The RT reaction buffer is prepared fresh on a daily basis and consists of 125 μl 1M EGTA, 125 μl water, 125 μl Triton X-100, 50 μl Tris (pH 7.4), 50 μl 1 MDDT, and 40 μl 1M MgCl2. These three solutions are mixed together in a ratio of 1 part TTP, 2.5 parts poly rA:oligo dT, 2.5 parts reaction buffer and 4 parts distilled water. Ten microliters of this reaction mixture is placed in a round bottom microtiter place and 15 μl of virus containing supernatant is added and mixed. The plate is incubated at 37° C. for 60 minutes. Following reaction, the reaction volume is spotted onto filter mats, washed 6 times for 5 minutes each in a 5% sodium phosphate buffer, 2 times for 1 minute each in distilled water, 2 times for 1 minute each in 70% ethanol, and then dried. The dried filter mat is placed in a plastic sample bag, Betaplate scintillation fluid is added and the bag is heat sealed. Incorporated radioactivity is quantified utilizing a Wallac Microbeta scintillation counter.
Acute infection of most established human cell lines with HIV-1 results in the eventual establishment of a constitutive virus-producing chronically infected cell line. The cells can be passaged for long periods of time in culture without loss of virus production. These cells may be utilized to evaluate the effects of anti-HIV compounds on syncytium formation or to evaluate the effects of anti-HIV compounds on levels of virus production from these cells. […] Each of the cells contains an integrated HIV genome or provirus. Chronically infected CEM, H9 and U937 cell lines have been prepared and cultured by Southern Research Institute, Frederick Md. and are available from them.
CEM-SS cells chronically infected with HIV isolate, for example SKI (CEM-SKI) are cultured in RPMI1640 tissue culture medium supplemented with 10% fetal bovine serum and antibiotics. […] CEM-SKI or other infected cells with no added drug are used as the control cells. Cells are allowed to grow to a density of approximately 1×10^6 cells/ml and are then passaged at a 1:10 dilution. […] The drug concentration in the flask is then increased two-fold and the cells maintained as above.
The cell populations contain integrated copies of the HIV genome and constitutively produce HIV at relatively high levels or are latently infected and only produce virus after stimulation with phorbol esters, tumor necrosis factor or IL6 (U1 and ACH2). Reductions in virus products were observed when quantifying supernatant reverse transcriptase activity,
Similar results are obtained with U937KN1272, a protease resistant strain, reported below.

hepatitis B, HEPG22.2.15 = experiment: In vitro virus production test of hepatitis B, DNA copy number; type: cell-based
vero cells = experiment: Herpes simplex testing: toxicity (TC50); parameters: unit not given beside the values

`c1csc(-c2nc3cccnc3[nH]2)c1` [2-(2-thienyl)-imidazolo [4,5-b]pyridine] was tested, and the “DNA Copy Number, % virus control” value ([1]; 0.64 μM) was 97.2%, the “DNA Copy Number, average” value ([1]; 0.64 μM) was 14122.1 per 3 μl and the “DNA Copy Number, samples 1-3” value ([1]; 0.64 μM) was 16524.7 per 3 μl and 16524.9 per 3 μl and 12316.8 per 3 μl. The “DNA Copy Number, % virus control” value ([1]; 2 μM) was 94.0%, the “DNA Copy Number, average” value ([1]; 2 μM) was 13653.8 per 3 μl and the “DNA Copy Number, samples 1-3” value ([1]; 2 μM) was 13427.5 per 3 μl and 11819.4 per 3 μl and 15714.5 per 3 μl. The “DNA Copy Number, % virus control” value ([1]; 6.4 μM) was 95.5%, the “DNA Copy Number, average” value ([1]; 6.4 μM) was 13876.4 per 3 μl and the “DNA Copy Number, samples 1-3” value ([1]; 6.4 μM) was 11795.6 per 3 μl and 15297.5 per 3 μl and 14536.1 per 3 μl. For the same compound, the “DNA Copy Number, % virus control” value ([1]; 20 μM) was 77.9%, the “DNA Copy Number, average” value ([1]; 20 μM) was 11321.8 per 3 μl and the “DNA Copy Number, % virus control” value ([1]; 64 μM) was 2.9%. For the same compound, the “DNA Copy Number, average” value ([1]; 64 μM) was 427.3 per 3 μl, the “DNA Copy Number, % virus control” value ([1]; 200 μM) was 13.9% and the “DNA Copy Number, average” value ([1]; 200 μM) was 2020.8 per 3 μl. For the same compound, the “DNA Copy Number, samples 1-3” value ([1]; 200 μM) was 1680.4 per 3 μl and 2041.2 per 3 μl and 2340.8 per 3 μl, the IC50 ([1]; Human gammaherpesvirus 8, BCBL1) was 36.4 µM and the reverse transcriptase data ([2]; 7 μg/ml, day 4) was 3503. For the same compound, the reverse transcriptase data ([2]; 7 μg/ml, day 11) was 10001, the reverse transcriptase data ([2]; 7 μg/ml, day 18) was 14176 and the reverse transcriptase data ([2]; 7 μg/ml, day 25) was 14084. It also gave a reverse transcriptase data ([2]; 7 μg/ml, day 32) of 9919, a reverse transcriptase data ([2]; 7 μg/ml, day 39) of 8890 and a reverse transcriptase data ([2]; 7 μg/ml, day 46) of 9238. It also gave a reverse transcriptase data ([2]; 7 μg/ml, day 53) of 9074, a reverse transcriptase data ([2]; 7 μg/ml, day 60) of 7460 and a reverse transcriptase data ([2]; 7 μg/ml, day 67) of 7863. The reverse transcriptase data ([2]; 7 μg/ml, day 71) was 8402, the reverse transcriptase data ([2]; 7 μg/ml, day 74) was 8976 and the reverse transcriptase data ([2]; 7 μg/ml, day 88) was 8522. It also gave a reverse transcriptase data ([2]; 7 μg/ml, day 95) of 9358, a reverse transcriptase data ([2]; 7 μg/ml, day 102) of 9221 and a reverse transcriptase data ([2]; 7 μg/ml, day 109) of 8245. It also gave a reverse transcriptase data ([2]; 15 μg/ml, day 4) of 2354, a reverse transcriptase data ([2]; 15 μg/ml, day 11) of 7962 and a reverse transcriptase data ([2]; 15 μg/ml, day 18) of 11866. The reverse transcriptase data ([2]; 15 μg/ml, day 25) was 13386, the reverse transcriptase data ([2]; 15 μg/ml, day 32) was 10413 and the reverse transcriptase data ([2]; 15 μg/ml, day 39) was 8675. It also gave a reverse transcriptase data ([2]; 15 μg/ml, day 46) of 8124, a reverse transcriptase data ([2]; 15 μg/ml, day 53) of 7645 and a reverse transcriptase data ([2]; 15 μg/ml, day 60) of 5534. The reverse transcriptase data ([2]; 15 μg/ml, day 67) was 4321, the reverse transcriptase data ([2]; 15 μg/ml, day 71) was 5364 and the reverse transcriptase data ([2]; 15 μg/ml, day 74) was 6974. It also gave a reverse transcriptase data ([2]; 15 μg/ml, day 88) of 4297, a reverse transcriptase data ([2]; 15 μg/ml, day 95) of 5224 and a reverse transcriptase data ([2]; 15 μg/ml, day 102) of 5361. The reverse transcriptase data ([2]; 15 μg/ml, day 109) was 7833, the reverse transcriptase data ([2]; 30 μg/ml, day 4) was 1209 and the reverse transcriptase data ([2]; 30 μg/ml, day 11) was 4377. For the same compound, the reverse transcriptase data ([2]; 30 μg/ml, day 18) was 6376, the reverse transcriptase data ([2]; 30 μg/ml, day 25) was 9293 and the reverse transcriptase data ([2]; 30 μg/ml, day 32) was 9903. It also gave a reverse transcriptase data ([2]; 30 μg/ml, day 39) of 6852, a reverse transcriptase data ([2]; 30 μg/ml, day 46) of 2502 and a reverse transcriptase data ([2]; 30 μg/ml, day 53) of 2760. The reverse transcriptase data ([2]; 30 μg/ml, day 60) was 2478, the reverse transcriptase data ([2]; 30 μg/ml, day 67) was 1643 and the reverse transcriptase data ([2]; 30 μg/ml, day 71) was 4820. It also gave a reverse transcriptase data ([2]; 30 μg/ml, day 74) of 3270, a reverse transcriptase data ([2]; 30 μg/ml, day 88) of 3184 and a reverse transcriptase data ([2]; 30 μg/ml, day 95) of 2031. For the same compound, the reverse transcriptase data ([2]; 30 μg/ml, day 102) was 3427, the reverse transcriptase data ([2]; 30 μg/ml, day 109) was 1356 and the “DNA Copy Number, % virus control” value (hepatitis B, HEPG22.2.15; 0.64 μg/ml) was 75.3%. For the same compound, the “DNA Copy Number, mean” value (hepatitis B, HEPG22.2.15; 0.64 μg/ml) was 255.6 per 3 μl, the “DNA Copy Number, samples 1-3” value (hepatitis B, HEPG22.2.15; 0.64 μg/ml) was 249.2 per 3 μl and 255.9 per 3 μl and 261.6 per 3 μl and the “DNA Copy Number, % virus control” value (hepatitis B, HEPG22.2.15; 2 μg/ml) was 39.8%. The “DNA Copy Number, mean” value (hepatitis B, HEPG22.2.15; 2 μg/ml) was 134.8 per 3 μl, the “DNA Copy Number, samples 1-3” value (hepatitis B, HEPG22.2.15; 2 μg/ml) was 134.5 per 3 μl and 124.2 per 3 μl and 145.8 per 3 μl and the “DNA Copy Number, % virus control” value (hepatitis B, HEPG22.2.15; 6.4 μg/ml) was 8.2%. The “DNA Copy Number, mean” value (hepatitis B, HEPG22.2.15; 6.4 μg/ml) was 27.9 per 3 μl, the “DNA Copy Number, % virus control” value (hepatitis B, HEPG22.2.15; 20 μg/ml) was 0.8% and the “DNA Copy Number, mean” value (hepatitis B, HEPG22.2.15; 20 μg/ml) was 2.7 per 3 μl. For the same compound, the “DNA Copy Number, % virus control” value (hepatitis B, HEPG22.2.15; 64 μg/ml) was 0.1%, the “DNA Copy Number, mean” value (hepatitis B, HEPG22.2.15; 64 μg/ml) was 0.4 per 3 μl and the “DNA Copy Number, % virus control” value (hepatitis B, HEPG22.2.15; 200 μg/ml) was 0%. The “DNA Copy Number, mean” value (hepatitis B, HEPG22.2.15; 200 μg/ml) was 0.1 per 3 μl, the IC50 (hepatitis B, HEPG22.2.15; HepG2 2.2.15, first experiment) was 1.6 µg/mL (≈ 7.95 µM) and the IC50 (hepatitis B, HEPG22.2.15; HepG2 2.2.15, replicate experiment) was 10.7 µg/mL (≈ 53.2 µM). For the same compound, the TC50 (vero cells) was 82.8.

Source: patent US20030232851A1, “Viral treatment” (The Procter & Gamble Company, priority 1999, published 2003)
